Numbered stars: 1 amine (or outer) side, 2 acyl side, 3 side chain; on linkers, the order of the positions; unused ones are H or OH. Square brackets hold non-standard residues; d marks the D form. Peptide text beside a SMILES is read from it. * marks the point of attachment. DOTA = O=C(O)CN1CCN(CC(=O)O)CCN(CC(=O)*)CCN(CC(=O)O)CC1; X1 = O=C(C1CSC(c2nc3ccc(N[*:1])cc3s2)=N1)[*:2]; X2 = N#Cc1ccc2cc(OCCCN*)ccc2n1; SEt = CCS*
Tests used:
[1] = Blood circulation and elimination in healthy nude mice; details: 5 nmol i.v.
[2] = system: DOX-induced apoptotic HeLa cells; experiment: Flow cytometry of DOX-induced apoptotic HeLa cells labeled with probes; format: cell-based, human; details: 5 μM DOX, 2 μM probe, 24 h
Method: For the DOX-induced apoptotic cells, HeLa cells in 12-well plates were co-incubated with DOX (5 μM) and 2 μM C-SNAF, L-ctrl and D-ctrl, or 2 μM C-SNAF together with 50 μM Z-VAD-fmk for 24 h. After washing with PBS (1×) three times, the cells pellets were resuspended in 300 μL PBS, and applied for flow cytometry analysis using the Cy5.5 channels. The cell number for each flow cytometry analysis was approximately 5×10^3 to 10^4, and the data was processed using FlowJo software.

caspase-9 = target: T1, caspase-9 (Homo sapiens, UniProt P55211); experiment: HPLC enzyme specificity assay of C-SNAF, caspase-9; format: biochemical; details: 25 μM probe, 0.735 μg/ml enzyme
T1 construct: purchased Calbiochem; host or cells: E. coli
Method: The specificity of C-SNAF towards other representative cysteine proteases such as caspase-7, caspase-9, cathepsin B, and legumain was examined.
Caspase (human, recombinant from E. coli) assays were performed for caspase-3 (4.9×10^−3 U; 7.35×10^−4 mg, Sigma), −7 (18.3 U; 7.35×10^−4 mg, Calbiochem), and −9 (0.3 U; 7.35×10^−4 mg, Calbiochem). All caspase assays were conducted in caspase buffer with 50 mM HEPES, 100 mM NaCl, 1 mM EDTA, 10 mM TCEP, 10% glycerol, and 0.1% CHAPS at pH 7.4. Cathepsin B (human liver; 0.27 U; 7.35×10^−4 mg, Calbiochem) and Legumain (human, recombinant from mouse myeloma cell line; >250 pmol/min/μg; 7.35×10^−4 mg, R&D Systems) were conducted in reaction buffer with 50 mM sodium acetate, 50 mM NaCl, 0.5 mM EDTA and 10 mM TCEP at pH 5.5. C-SNAF was diluted in the respective enzyme reaction buffer (25 μM, 1 mL) and remained at room temperature for 10 min, to which was then added the respective enzymes. Reactions were performed at 37° C., and monitored by HPLC hourly. The percentage conversion of the reaction was calculated based on the percentage of peak area of C-SNAF-cycl in the HPLC trace at 675 nm UV detection, which indicated the efficacy of enzyme cleavage of C-SNAF.

cathepsin B = target: T2, cathepsin B (Homo sapiens, UniProt P07858); experiment: T1 measurement of probe 15 with cathepsin B; format: biochemical; details: probe 208 μM, protease 50 nM, 1 T
T2 construct: Cathepsin B (human liver; 0.27 U; 7.35×10^−4 mg, Calbiochem); purchased Calbiochem; host or cells: human liver (tissue-derived)
Method: The enzyme specificity of probe 15 was studied by measuring the T1 value resulting from probe incubation (208 μM) with any of five relevant subcellular proteases (caspase-3, -7, -9, cathepsin B and legumain) in enzyme buffer. […] The reduced T1 value in solution was inhibited by the caspase inhibitor Z-VAD-fmk (50 μM).
Cathepsin B (human liver; 0.27 U; 7.35×10^−4 mg, Calbiochem) and Legumain (human, recombinant from mouse myeloma cell line; >250 pmol/min/μg; 7.35×10^−4 mg, R&D Systems) were conducted in reaction buffer with 50 mM sodium acetate, 50 mM NaCl, 0.5 mM EDTA and 10 mM TCEP at pH 5.5. The C-SNAF was diluted in the respective enzyme reaction buffer (25 μM, 1 mL) and remained at room temperature for 10 min, to which was added respective enzymes.

HeLa cells = experiment: ICP-MS cellular uptake of Gd in HeLa cells; format: cell-based, human; details: 250 μM probe, 24 h
Method: The cellular uptake of Gd was studied by inductively-coupled plasma mass spectrometry (ICP-MS) analysis of the amount of Gd in viable and apoptotic cells after incubation with probe 15 (50-250 μM) for 24 h. […] This uptake enhancement was inhibitable by Z-VAD-fmk (50 μM), confirming the caspase-3-dependent accumulation of probe 15 in apoptotic cells.

T1 sequence (P55211 1-315 limits assumed): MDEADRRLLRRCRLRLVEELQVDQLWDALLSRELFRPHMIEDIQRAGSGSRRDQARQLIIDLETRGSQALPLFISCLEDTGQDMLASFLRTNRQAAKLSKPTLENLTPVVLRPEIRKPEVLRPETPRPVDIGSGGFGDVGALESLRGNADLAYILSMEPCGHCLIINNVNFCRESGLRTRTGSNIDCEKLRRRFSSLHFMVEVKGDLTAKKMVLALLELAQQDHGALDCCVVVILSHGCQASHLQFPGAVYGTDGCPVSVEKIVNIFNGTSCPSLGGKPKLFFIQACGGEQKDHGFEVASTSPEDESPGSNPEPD

In the case of `CCSSC[C@@H](NC(=O)[C@H](CC(=O)O)NC(=O)[C@@H](NC(=O)[C@H](CCC(=O)O)NC(=O)[C@H](CC(=O)O)NC(C)=O)C(C)C)C(=O)N[C@@H](CCCCNC(=O)CCCCCN1C(=CC=CC=CC2=[N+](CC)c3ccc4c(S(=O)(=O)[O-])cc(S(=O)(=O)O)cc4c3C2(C)C)C(C)(C)c2c1ccc1c(S(=O)(=O)O)cc(S(=O)(=O)O)cc21)C(=O)Nc1ccc2nc(C3=N[C@@H](C(=O)NCCCOc4ccc5nc(C#N)ccc5c4)CS3)sc2c1` [C-SNAF], the blood half-life [1] is reported as 1.0 ± 0.45 h, the “time of nearly complete elimination after administration” value [1] is reported as no more than 12 h and the “increase in Cy5.5 intensity of DOX-induced apoptotic cells compared to no probe or control probes” value [2] is reported as roughly 4 fold. The “activity of caspase-9 towards probe” value (caspase-9) was “essentially no activity”.
In the case of `CCSSCC(NC(=O)C(CC(=O)O)NC(=O)C(NC(=O)C(CCC(=O)O)NC(=O)C(CC(=O)O)NC(C)=O)C(C)C)C(=O)NC(CCCCNC(=O)CN1CCN(CC(=O)[O-])CCN(CC(=O)[O-])CCN(CC(=O)[O-])CC1)C(=O)Nc1ccc2nc(C3=NC(C(=O)NCCCOc4ccc5nc(C#N)ccc5c4)CS3)sc2c1.[Gd+3]` (stereo not drawn) [probe 15] (Ac-DEVDC(SEt)K(DOTA)[X1]-X2; configuration not given here), the “T1 value after incubation with cathepsin B” value (cathepsin B) is reported as “No reduced T1 value” and the “cellular uptake of Gd in STS-treated versus non-treated cells” value (HeLa cells) is reported as 6.6 fold.

From patent publication US9642922B2, “Caspase-triggered nano-aggregation probes and methods of use” (The Board of Trustees of the Leland Stanford Junior …, priority 2013, dated 2017)
